Reference: patent EP1124556B1, “USE OF OPTICALLY PURE (R)-TOFISOPAM FOR TREATING AND PREVENTING ANXIETY DISORDERS” (priority 1998, dated 2000)
Values joined by “and” are separate entries in the source; they are usually repeats but may differ in a detail not shown here. Equal values may be shown once.

What was measured:
Male Long Evans rats = test: Head-twitch response assay (potentiation of 5-MeODMT-induced head-twitches) for anxiolytic activity; format: in vivo; design: Score: scale not given here; details: for Head Twitch: one hour before interperitoneal 3mg/kg 5-MeODMT, number of head-twitches over 1-5 minute period post injection, individual rats No. 1-3; for Score: group of 3 rats
Procedure: Dry preparations of tofisopam, R-tofisopam or S-tofisopam were dissolved in 2% Tween 80/5% DMSO for oral administration in a blind assay. Diazepam (Sigma, U.S.A.) was similarly dissolved in DMSO (Merck, Germany), distilled water and Tween 80 (Wako Pure Industries, Ltd., Japan).
Male Long Evans rats provided by animal breeding center of MDS Panlabs Taiwan, Ltd., were used. Space allocation for animals was as follows: 45 x 23 x 15 cm for 6 rats. Rats were housed in APEC® (Allentown Gaging, Allentown, NJ 08501, U.S.A.) cages in a positive pressure isolator (NuAire® , Mode: Nu-605, airflow velocity 50± 5 ft/min, HEPA Filter). All animals were maintained in a controlled temperature (22°C - 24°C) and humidity (60% - 80%) environment with 12 hours light dark cycles for at least one week in MDS Panlabs Taiwan laboratory prior to being used. Free access to standard lab chow for rats (Fwusow Industry Co., Limited, Taiwan) and tap water was granted. All aspects of this work including housing, experimentation and disposal of animals were performed in general accordance with the International Guiding Principles for Biomedical Research Involving Animals (CIOMS Publication No. ISBN 92 90360194, 1985).
Moser, P.C., "The Effect of Novel Axiolytics on the Head-Twitch Response in Mice" British J. Pharmacol Suppl. 99:248P (1990) . Based on those assays, test substances were administered orally to the rats one hour before interperitoneal injection of 3mg/kg 5-MeODMT. The number of head-twitches over a 1-5 minute period post injection were recorded (Table 1).

benzodiazepine receptor = details: cited from earlier work
patients = details: cited from earlier work
[1] = in vivo; cited from earlier work
site II of HSA = site II of HSA (Homo sapiens, UniProt P02768); details: cited from earlier work
Chain of site II of HSA (P02768 25-609): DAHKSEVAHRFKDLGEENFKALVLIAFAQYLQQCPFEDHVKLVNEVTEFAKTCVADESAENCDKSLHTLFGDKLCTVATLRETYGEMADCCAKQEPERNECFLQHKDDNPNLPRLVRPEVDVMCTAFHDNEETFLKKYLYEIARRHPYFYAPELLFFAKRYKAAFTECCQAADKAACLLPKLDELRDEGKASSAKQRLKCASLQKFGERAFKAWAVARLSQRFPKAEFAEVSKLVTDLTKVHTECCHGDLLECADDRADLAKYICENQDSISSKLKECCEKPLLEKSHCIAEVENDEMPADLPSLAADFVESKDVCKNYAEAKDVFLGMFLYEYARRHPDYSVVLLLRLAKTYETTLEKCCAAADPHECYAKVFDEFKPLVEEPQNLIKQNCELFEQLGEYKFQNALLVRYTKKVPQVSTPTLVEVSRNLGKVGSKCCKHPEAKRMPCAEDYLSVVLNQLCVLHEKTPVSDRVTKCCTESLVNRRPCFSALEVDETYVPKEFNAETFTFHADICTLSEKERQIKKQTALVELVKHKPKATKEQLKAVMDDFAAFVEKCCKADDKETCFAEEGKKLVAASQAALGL

[2] = cited from earlier work
[3] = Conformer interconversion in solution; format: physicochemical
Procedure: The enantiomers of tofisopam were resolved by chiral chromatography. For example, tofisopam (42.8mg dissolved in acetonitrile) was loaded onto a Chirobiotic V column (ASTEC, Whippany, NJ). Elution of the compounds with MTBE/ACN 90/10 (v/v), 40ml/min, was monitored at 310nm, 2mm path. The R(+) enantiomer was the first compound to elute from the column. The R(+) enantiomer was collected, dried and stored for use in biological assays. R(-)-tofisopam ("A" ' ) , S (-/+) tofisopam ("B" and "B' ") , and residual R(+)-tofisopam ("A") co-eluted and was collected in a subsequent fraction (e.g., FIG. 1, fraction 2). Approximately 20% of the R(+)-tofisopam in fraction 1 is converted into R(-)-tofisopam if left in solution for 24 hours. A 80/20 stable equilibrium (R+/R-) was observed between the two conformers in MTBE/ACN (90/10) solution at room temperature.

dopamine (D2L) receptor = dopamine (D2L) receptor (Homo sapiens, UniProt P14416); test: Dopamine receptor binding (preliminary results)
Chain of dopamine (D2L) receptor (P14416 whole entry): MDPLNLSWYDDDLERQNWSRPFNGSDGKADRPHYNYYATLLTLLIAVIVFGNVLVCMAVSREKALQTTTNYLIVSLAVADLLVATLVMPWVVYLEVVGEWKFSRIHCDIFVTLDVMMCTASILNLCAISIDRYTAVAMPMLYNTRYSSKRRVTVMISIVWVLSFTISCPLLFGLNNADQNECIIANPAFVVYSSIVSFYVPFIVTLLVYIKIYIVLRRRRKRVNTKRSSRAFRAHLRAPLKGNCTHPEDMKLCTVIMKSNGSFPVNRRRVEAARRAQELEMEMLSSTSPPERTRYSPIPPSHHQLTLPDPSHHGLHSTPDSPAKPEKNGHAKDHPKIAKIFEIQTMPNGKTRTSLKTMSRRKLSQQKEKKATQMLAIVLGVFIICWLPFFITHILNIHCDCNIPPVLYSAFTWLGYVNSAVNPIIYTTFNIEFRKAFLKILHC

Q: Which results are given for `CCC1C(C)=NN=C(c2ccc(OC)c(OC)c2)c2cc(OC)c(OC)cc21` (racemic) [tofisopam, 1-(3,4-dimethoxy-phenyl) - 4-methyl-5-ethyl-7,8-dimethoxy-5H-2,3-benzodiazepine]?
A: Head Twitch (Male Long Evans rats; PO 30 mg/kg): 0; Score (Male Long Evans rats; PO 30 mg/kg): 0; binding to the benzodiazepine receptor (benzodiazepine receptor): does not bind to the benzodiazepine receptor; binding of BDZs to their receptors (benzodiazepine receptor; in vivo and in vitro, after acute and chronic treatment): enhances the binding of BDZs to their receptors; patients reporting side effects during treatment (patients; double-blind study, 4 weeks, 57 outpatients with anxiety and depression): twenty-one; anxiolytic effect (patients; multicenter study, 325 patients, 3 weeks, 150-1300 mg/day): effective anxiolytic; anticonvulsive, muscle relaxant or sedative effects [1]: not have anticonvulsive, muscle relaxant or sedative effects

Q: Which “Head Twitch” value (Male Long Evans rats; PO 30 mg/kg) does the source give for `CC[C@@H]1C(C)=NN=C(c2ccc(OC)c(OC)c2)c2cc(OC)c(OC)cc21` [S-tofisopam] here?
A: 0

Q: What about the Score (Male Long Evans rats; PO 30 mg/kg) of the same compound?
A: 0

Q: With `N[C@@H](Cc1c[nH]c2ccccc12)C(=O)O` [L-Tryptophan] as the compound, how does the “affinity for site II of HSA relative to the other enantiomer” value (site II of HSA) read?
A: about 100 times

Q: Which “solubility relative to its separate isomers” value [2] does the source give for `O=C1CCC(N2C(=O)c3ccccc3C2=O)C(=O)N1` (racemic) [racemic thalidomide] here?
A: ten times less soluble

Q: Which results are given for `CN1C(=O)CN=C(c2ccccc2)c2cc(Cl)ccc21` [Diazepam]?
A: Head Twitch (Male Long Evans rats; PO 10 mg/kg): 5 and 1 and 9; Score (Male Long Evans rats; PO 10 mg/kg): 2

Q: With `CC[C@H]1C(C)=NN=C(c2ccc(OC)c(OC)c2)c2cc(OC)c(OC)cc21` [R(+)-tofisopam] as the compound, how does the “stable equilibrium (R+/R-)” value ([3]; MTBE/ACN (90/10) solution at room temperature) read?
A: 80/20

Q: And the “converted into R(-)-tofisopam” value ([3]; left in solution for 24 hours)?
A: Approximately 20%

Q: What does the source list for `CC[C@H]1C(C)=NN=C(c2ccc(OC)c(OC)c2)c2cc(OC)c(OC)cc21` [R-tofisopam, R-1-(3,4-dimethoxyphenyl)-5-ethyl-7,8-dimethoxy-4-methyl-5H-2,3-benzodiazepine]?
A: Head Twitch (Male Long Evans rats; PO 30 mg/kg): 0 and 2 and 1; Score (Male Long Evans rats; PO 30 mg/kg): 1; side effects related to binding to the dopamine (D2L) receptor (dopamine (D2L) receptor): cannot manifest side effects related to binding to the dopamine (D2L) receptor
